This is an account of results in PubChem BioAssay AID179 (DTP/NCI, 2004).

The assay deals with CEM cells HIV-1 protection, formazan growth assay. Kind of assay: NCI AIDS Antiviral Assay. As to conditions: for IC50: measured here: growth of uninfected CEM cells. In outline:
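Human CEM cells, uninfected and HIV-1-infected, received five drug concentrations, and growth was read by soluble formazan assay. Compounds giving at least 50% protection were retested; reproducible 100% protection defined confirmed active.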

Several values for one entry are separate records, joined by “and”; a condition that tells them apart may be missing. Identical values can stand only once. Activity calls are given as the source filed them.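 Rule for the calls: active = compounds giving half or more protection of infected cells from virus-caused growth loss, again on retest; inactive = the rest.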

On to `Cc1n[nH]c(C)c1N=O`, for which the EC50 was above 200 µM and the IC50 is 4.27 µM. In the case of `C=C1C[C@@H]2O[C@H]3[C@H]4[C@@H](C[C@@H](C)[C@@H](OC(C)=O)[C@H]42)[C@@H](C)CO[C@@]3(C)[C@H](OC(C)=O)C[C@H]1O`, the EC50 was above 200 µM and the IC50 was determined as 51.3 µM.

Regarding `N#CC(C(=O)C(=O)Nc1ccc(Cl)c(Cl)c1)c1ccc(Cl)cc1` (stereo not given), the EC50 is above 135 µM and the concentration for half-maximal inhibition (IC50) turned out to be 107 µM.

`Sc1ccccc1-n1c(-c2ccccc2)ccc1-c1ccccc1`: the EC50 is above 200 µM; the IC50 was 151 µM and 155 µM. As to `CCCCCCCCCC1CC(=O)c2c(O)cccc2O1` (stereo not given), the EC50 is above 18.2 µM and the IC50 is above 18.2 µM. Take `CC(=O)Oc1ccc2c(c1)oc1c3ccc(OC(C)=O)cc3n(C)c(=O)c21`: the EC50 is above 200 µM and the IC50 turned out to be 107 µM. The matching figures for `CC(=O)C1c2ccccc2C(C(C)=O)(c2ccccc2)C1c1ccccc1` (stereo not given): above 200 µM and 38 µM. Consider `COc1ccc(C2(O)C(S(=O)(=O)c3ccc(C)cc3)=Cc3ccc(OC)cc32)cc1` (stereo not given), for which the EC50 was above 200 µM and the IC50 was above 200 µM. On to `COCCCNC(=O)C1C(=O)N(CCCOC)C(=O)/C1=N\N` (stereo not given), for which the EC50 is above 214 µM and the 50% inhibitory concentration (IC50) is above 214 µM.

In the case of `O=C1c2ccccc2C(=O)c2c(Nc3cccc4c3C(=O)c3ccccc3C4=O)cccc21`, the EC50 was above 200 µM and the IC50 was above 200 µM.

As for `O=C(/C=C/c1ccc(OCc2cccc(Cl)c2)cc1)NO`, the EC50 was above 200 µM and the IC50 came to 25.7 µM. For the molecule `COc1cc(O)c2c(c1)C(O)C(O)CC1OC1C(=O)/C=C/CC(C)OC2=O` (stereo not given), the EC50 is above 75.9 µM and the concentration for half-maximal inhibition (IC50) was found to be 0.977 µM. As for `Nc1ccc(N=Nc2ccc(N=Nc3c(S(=O)(=O)O)cc4cc(S(=O)(=O)O)c(N=Nc5ccc(N=Nc6ccc(N)cc6N)cc5)c(O)c4c3N)cc2)c(N)c1`, the concentration giving a half-maximal response (EC50) was 11.5 µM and the half-inhibitory concentration (IC50) was found to be 50.1 µM. The matching figures for `Cc1cc2c(cc1C)Nc1oc3ccc4ccccc4c3c(=O)c1C=N2`: above 200 µM and above 200 µM.

For the molecule `CC(=O)NC1C(OCC(=O)N2CCCC2C(=O)NC(CCC(=O)NCCCCCNc2ccc([N+](=O)[O-])c3[nH]c4ccccc4c(=O)c23)C(N)=O)C(O)C(CO)OC1(C)OCc1ccccc1` (stereo not given), the EC50 is above 50.1 µM and the IC50 is 1.02 µM. Regarding `CCOC(=O)/C(=C\c1ccc[nH]1)C(=O)c1ccccc1`, the EC50 is above 95.5 µM and the half-inhibitory concentration (IC50) is above 95.5 µM. Regarding `CCc1c(C)c2cc3[nH]c(cc4nc(cc5nc(cc1[nH]2)C(C)=C5CCC(=O)OC)C(CCC(=O)OC)=C4C)c(C)c3CC`, the result was inactive. Regarding `COc1cc(CNC(=O)CCCCCCCCCCSC#N)ccc1O`, the EC50 was above 200 µM and the IC50 was 27.5 µM.

In the case of `Cc1nc2c(=O)n(C)c(=O)nc-2n(CCO)c1C`, the EC50 was above 100 µM and the half-inhibitory concentration (IC50) was found to be 83.2 µM. Regarding `Cn1cnc([N+](=O)[O-])c1Sc1nc2cccnc2s1`, the EC50 was above 170 µM and the IC50 stood at 4.57 µM. As for `Cc1ccc2c(c1)Nc1ccccc1C(=O)N2`, the EC50 was above 200 µM and the half-inhibitory concentration (IC50) is above 200 µM. Regarding `COc1cc(NC(C)=O)c2[nH]c3c(C)cc(NC(C)=O)c(C)c3c2c1`, the result was inactive. For `CC1(C)COC(c2cccc3c2C2C=CC3O2)=N1` (stereo not given), the EC50 was above 200 µM and the IC50 is above 200 µM. Consider `CCO/C=C/C=C(C(=O)OCC)C(=O)OCC`, for which the EC50 is above 148 µM and the IC50 is above 148 µM. Regarding `N#CI1OC(C(F)(F)F)(C(F)(F)F)c2ccccc21`, the EC50 was above 200 µM and the half-maximal inhibitory concentration (IC50) turned out to be 9.55 µM.

Take `O=C(NC/C(Cl)=C/Cl)Nc1c2ccccc2nc2ccccc12`: the EC50 was above 200 µM and the half-maximal inhibitory concentration (IC50) was 21.9 µM. Regarding `CCOC(=O)C(=Cc1cccc(F)c1)C(=O)OCC`, the EC50 was above 355 µM and the IC50 turned out to be 22.4 µM.

As for `O=c1[nH]cc(N=Nc2ccc(S(=O)(=O)Nc3nccs3)cc2)cc1O`, the EC50 is above 195 µM and the IC50 is 170 µM. The matching figures for `O=C1CSC(=Nc2ccccc2F)N1c1ccccc1F`: above 107 µM and above 107 µM. With `CCOP(=O)(OCC)/C(C#N)=C/c1nccn1C`, the outcome was inactive. As to `NC(=O)CC[C@H]1C(=O)N=C(N)N1C(=O)OCc1ccccc1`, the EC50 is above 200 µM and the half-maximal inhibitory concentration (IC50) is above 200 µM. `COCP1(=S)OC(C)CCN1C(C)C` (stereo not given): the EC50 is above 200 µM and the IC50 amounted to 112 µM. For `Cc1cc2nc(-c3ccccc3Cl)[nH]c2cc1C`, the EC50 was above 100 µM and the IC50 worked out at 32.4 µM. For `CC1=N/C(=C\c2ccc(-c3ccccc3)cc2)C(=O)O1`, the EC50 was above 20 µM and the IC50 was above 20 µM.

As to `Cc1cc2occ(S(=O)(=O)NC(=O)Nc3ccc(Cl)cc3)c(=O)c2c(=O)o1`, the EC50 was above 200 µM and the IC50 was 151 µM. In the case of `O=c1[nH]n(-c2ccccc2)c(=O)cc1Cl`, the EC50 is above 85.1 µM and the IC50 was above 85.1 µM. Turning to `CCO[C@H]1CC(C)C2[C@H](CC3(C)C4CC(OC(C)=O)C5C(C)(C)[C@@H](OC6OCC(O)C(O)C6O)CC[C@@]56C[C@@]46CC[C@]23C)O1` (stereo not given in full), the EC50 was above 41.7 µM and the 50% inhibitory concentration (IC50) is above 41.7 µM. For `O=[N+]([O-])c1c(O)c2nonc2c2nn(-c3ccccc3)nc12`, the EC50 is above 200 µM and the IC50 was determined as 120 µM. Turning to `CC1=C(C(=O)Nc2ccccc2)C(c2ccc3c(c2)OCO3)C(C(=O)Nc2ccccc2)=C(C)N1`, the EC50 was above 11.2 µM and the concentration for half-maximal inhibition (IC50) was above 11.2 µM. Consider `Cc1cc2c(=O)cc(-c3ccc(C(=O)O)cc3)oc2c(C(N)=O)c1C`, for which the outcome was inactive. In the case of `COc1cc2ccc1OCc1cccc(n1)COc1ccc(cc1OC)C=NCCNCCNCCN=C2`, the EC50 was above 200 µM and the IC50 was determined as 110 µM. The matching figures for `COC(=O)C1=C(c2ccc(Cl)cc2)C(O)N=C(NN)N1` (stereo not given): above 832 µM and above 832 µM. Consider `COc1ccc(NC(=O)Oc2ccc3c(C)cc(=O)oc3c2)c(OC)c1`, for which the EC50 is above 52.5 µM and the half-maximal inhibitory concentration (IC50) was above 52.5 µM. For `COC(=O)C1=CC2OC13CC1CCC3(C2=O)C1(C)C` (stereo not given), the outcome was inactive. In the case of `Nc1nc(NCCOCP(=O)(O)O)c([N+](=O)[O-])c(=O)[nH]1`, the EC50 stood at 178 µM and the concentration for half-maximal inhibition (IC50) was above 200 µM. As to `CC(=O)Nc1ccc(-c2nnc(SCC(=O)Nc3cccc(Cl)c3)o2)cc1`, the EC50 was above 46.8 µM and the IC50 was 7.59 µM. On to `CC1NOC(=O)C1N=Nc1ccccc1Br` (stereo not given), for which the EC50 is above 66.1 µM and the IC50 is 63.1 µM. As for `Cc1cc(C)nc(NC(=O)Nc2ccccc2)c1`, the EC50 was above 200 µM and the 50% inhibitory concentration (IC50) was above 200 µM. As for `CN1CCCOC(c2ccc([N+](=O)[O-])cc2)O1` (stereo not given), the EC50 is above 200 µM and the IC50 was above 200 µM.

With `C[n+]1c(-c2ccc(/C=N/Nc3ccnc(N/N=C/c4ccc(-c5cn6ccsc6[n+]5C)cc4)n3)cc2)cn2ccsc21`, the concentration giving a half-maximal response (EC50) was 11.5 µM and the IC50 is 41.7 µM. In the same order, the values of `C(#Cc1ccccc1)SC1=C(c2ccccc2)S/C(=C(\SC#Cc2ccccc2)c2ccccc2)S1` are above 200 µM and above 200 µM. In the same order, the values of `CC(C)C1CC(CO)(CNc2cc(Cl)nc(N)n2)C1` (stereo not given) are above 20 µM and 19.5 µM.

As to `CC1(C)OC(=O)C(=Cc2cccc(Br)c2)C(=O)O1`, the EC50 was above 794 µM and the concentration for half-maximal inhibition (IC50) was 1.86 µM. As to `CC(=O)NC1NCCNC1=O` (stereo not given), the EC50 is above 200 µM and the IC50 is above 200 µM. Turning to `N#CC1([N+](=O)[O-])C=C1c1ccccc1` (stereo not given), the EC50 was above 200 µM and the IC50 was found to be 89.1 µM.

As for `C#CCn1c(I)cc2c(c1=O)COC(=O)[C@]2(O)CC`, the EC50 was above 200 µM and the IC50 was above 200 µM. Turning to `COc1ccc2c(c1)OC[C@@H]1c3cc(O)c4c(OC)cccc4c3O[C@H]21`, the EC50 is above 100 µM and the IC50 turned out to be 44.7 µM.

For the molecule `CC12CC3CC(C)(C1)CC(SC(=N)N)(C3)C2`, the EC50 is above 776 µM and the 50% inhibitory concentration (IC50) is 38.9 µM.

Consider `CC1(O)CCC2(C)C(=O)C1(C)CCC21OCCO1` (stereo not given), for which the outcome was inactive. For `NC(S(=O)(=O)O)S(=O)(=O)O`, the EC50 was above 200 µM and the 50% inhibitory concentration (IC50) turned out to be 91.2 µM.

With `COC1CC[C@@H]2CC(=O)CC[C@]2(C)C1=O` (stereo not given in full), the result was inactive. `Cc1c2ccccc2nc(CS(C)=O)[n+]1[O-]` (stereo not given): the EC50 is above 200 µM and the 50% inhibitory concentration (IC50) was above 200 µM. `Cc1ccc2c(c1)C(=O)CC=C(C(=O)O)N2`: the EC50 was above 200 µM and the IC50 is above 200 µM. For the molecule `Cc1cccc(N=N/C(=N\NC(=O)c2cc(Cl)ccc2O)c2ccc(N(CCC#N)CCC#N)cc2C)c1`, the EC50 was above 200 µM and the half-inhibitory concentration (IC50) was 30.9 µM.

For the molecule `OC(c1ccsc1)c1cc2ccccc2s1` (stereo not given), the EC50 was above 200 µM and the half-inhibitory concentration (IC50) worked out at 107 µM. Turning to `CC(=O)Nc1c2sscc-2n(C)c1=O`, the EC50 is above 16.6 µM and the IC50 was found to be 0.891 µM. In the same order, the values of `CC(=O)C(N=Nc1ncn[nH]1)C(C)=O` are above 200 µM and 170 µM. As to `Cc1[nH]n(C2=NCCN2)c(=O)c1Cc1ccccc1`, the EC50 is above 200 µM and the concentration for half-maximal inhibition (IC50) is above 200 µM. `CC1CN1C(=O)NCCCCCCNC(=O)N1CC1C` (stereo not given): the EC50 was above 200 µM and the IC50 was 4.79 µM.

For the molecule `O=S(=O)(O)CCC(O)S(=O)(=O)O` (stereo not given), the EC50 was above 200 µM and the 50% inhibitory concentration (IC50) worked out at 120 µM. Turning to `O=[N+]([O-])c1c(F)c(F)c2c(c1F)N(CCCCCl)c1ccccc1S2`, the EC50 was above 200 µM and the half-maximal inhibitory concentration (IC50) was 7.94 µM. As to `O=S(=O)(CCC[C@H]1[C@@H](CCOCc2ccccc2)C2CCCN1O2)c1ccccc1` (stereo not given in full), the EC50 is above 200 µM and the 50% inhibitory concentration (IC50) is 95.5 µM. With `C#CCOc1cc2c(c3oc(=O)cc(CCC)c13)[C@@H](O)[C@H](C)[C@@H](C)O2`, the EC50 is above 200 µM and the IC50 is above 200 µM. As for `CCCCCCCCCCCCCCCCNC(=S)N/C=C(/C#N)C(=O)OC`, the outcome was inactive.

The term EC50 denotes the concentration that produces a half-maximal response. Broadly, the IC50 is the concentration that inhibits the measured activity by half. Read a low IC50 as higher potency.
